6 compounds from US9718905B2, “Polythiophene, water-soluble electrically conductive polymer using it, and method for producing it” (TOSOH CORPORATION, priority 2012, dated 2017) can be followed below.

Data set [1] can be described thus: Water solubility of thiophene compound (monomer). Type of data set: physicochemical. The protocol:
The thiophene compound used as the material is more preferably one having water solubility to such an extent that it is dissolved in water at room temperature or with heating in an amount of at least 0.5 wt %.
The thiophene compound used as a material is more preferably one having water solubility to such an extent that it is soluble in water at room temperature or with heating in an amount of at least 0.5 wt %.

Data set [2] can be described thus: Storage and handling in air. The format is physicochemical.

Regarding `O=S(=O)([O-])CCNCC1COc2cscc2O1.[K+]` (stereo not drawn) [Example 1, Potassium N-(2,3-dihydro-thieno[3,4-b][1,4]dioxin-2-ylmethyl)-2-aminoethanesulfonate], the water solubility result in data set [1] (at room temperature) is given as “at least 1 wt %”. Further, the “storage and handling in air” value in data set [2] is “could be stored and handled in air”.

Turning to `CN(CCS(=O)(=O)[O-])CC1COc2cscc2O1.[Na+]` (stereo not drawn) [Example 2, Sodium N-methyl-N-(2,3-dihydro-thieno[3,4-b][1,4]dioxin-2-ylmethyl)-2-aminoethanesulfonate], in data set [1] (at room temperature), the water solubility result is reported as “at least 1 wt %”. In addition, the “storage and handling in air” value in data set [2] is “could be stored and handled in air”.

As for `O=S(=O)([O-])CC1COc2cscc2O1.[Na+]` (stereo not drawn) [Example 3, Sodium 2,3-dihydro-thieno[3,4-b][1,4]dioxin-2-ylmethanesulfonate], the water solubility result in data set [1] (at room temperature) was “at least 1 wt %”. Further, the “storage and handling in air” value in data set [2] was “could be stored and handled in air”.

As for `O=S(=O)([O-])CCCCCCC1COc2cscc2O1.[Na+]` (stereo not drawn) [Example 4, sodium 6-(2,3-dihydro-thieno[3,4-b][1,4]dioxin-2-yl)-1-hexanesulfonate], the water solubility entry in data set [1] (at room temperature) was “at least 1 wt %”. The “storage and handling in air” value in data set [2] is “could be stored and handled in air”.

With `O=S(=O)([O-])c1ccc(OCC2COc3cscc3O2)cc1.[K+]` (stereo not drawn) [Example 17, Potassium O-(2,3-dihydro-thieno[3,4-b][1,4]dioxin-2-ylmethyl)-4-phenolsulfonate], the water solubility result in data set [1] (temperature not stated) is “at least 1 wt %”. The “storage and handling in air” value in data set [2] was “could be stored and handled in air”.

Regarding `O=S(=O)([O-])c1ccc(OCC2COc3cscc3O2)cc1.[Na+]` (stereo not drawn) [Example 18, sodium O-(2,3-dihydro-thieno[3,4-b][1,4]dioxin-2-ylmethyl)-4-phenolsulfonate], the water solubility entry in data set [1] (temperature not stated) is listed as “at least 1%”. In data set [2], the “storage and handling in air” value is “could be stored and handled in air”.
